# Data reported in patent publication US5985281A, “Chemical compounds” (Zeneca Limited, priority 1994, dated 1999).
# Changes are numbered by the printed parent chain. In names and notes the source's numbering stands. Read-outs that look alike come from different tables or passages of the source. Residues, ends and D or L forms follow the SMILES beside them.
# T1: BP-RNase (Bos taurus, UniProt P61823)
# T1 sequence (P61823 27-150): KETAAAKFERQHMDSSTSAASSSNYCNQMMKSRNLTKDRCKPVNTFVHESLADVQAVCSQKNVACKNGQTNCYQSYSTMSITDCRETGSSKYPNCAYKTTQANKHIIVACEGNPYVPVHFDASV
# B1: Rec. BP-RNase: recombinant bovine pancreatic ribonuclease (protein, UniProt P61823 27-150, looked up)
# Ribonuclease pancreatic: T1 sequence (P61823 27-150)
# B2: Lys66Glu BP-RNase: bovine Lys66Glu pancreatic ribonuclease (protein, UniProt P61823 27-150, looked up, variant K66E)
# Ribonuclease pancreatic: T1 sequence (P61823 27-150) with K66E
# B3: Rec. HP-RNase R4A:K6A: recombinant Arg4Ala,Lys6Ala human pancreatic ribonuclease (protein, UniProt P07998 29-156, looked up, variant R4A K6A)
# Ribonuclease pancreatic: KESAAAKFQRQHMDSDSSPSSSSTYCNQMMRRRNMTQGRCKPVNTFVHEPLVDVQNVCFQEKVTCKNGQGNCYKSNSSMHITDCRLTNGSRYPNCAYRTSPKERHIIVACEGSPYVPVHFDASVEDST
# B4: Native CPB: native human pancreatic carboxypeptidase B, recombinant (protein, UniProt P15086 111-417, looked up)
# Carboxypeptidase B: ATGHSYEKYNKWETIEAWTQQVATENPALISRSVIGTTFEGRAIYLLKVGKAGQNKPAIFMDCGFHAREWISPAFCQWFVREAVRTYGREIQVTELLDKLDFYVLPVLNIDGYIYTWTKSRFWRKTRSTHTGSSCIGTDPNRNFDAGWCEIGASRNPCDETYCGPAAESEKETKALADFIRNKLSSIKAYLTIHSYSQMMIYPYSYAYKLGENNAELNALAKATVKELASLHGTKYTYGPGATTIYPAAGGSDDWAYDQGIRYSFTFELRDTGRYGFLLPESQIRATCEETFLAIKYVASYVLEHLY
# B5: proHCPB: pro form of human pancreatic carboxypeptidase B expressed from COS cells (protein, UniProt P15086 16-417, looked up)
# pro-form: HHGGEHFEGEKVFRVNVEDENHINIIRELASTTQIDFWKPDSVTQIKPHSTVDFRVKAEDTVTVENVLKQNELQYKVLISNLRNVVEAQFDSRVRATGHSYEKYNKWETIEAWTQQVATENPALISRSVIGTTFEGRAIYLLKVGKAGQNKPAIFMDCGFHAREWISPAFCQWFVREAVRTYGREIQVTELLDKLDFYVLPVLNIDGYIYTWTKSRFWRKTRSTHTGSSCIGTDPNRNFDAGWCEIGASRNPCDETYCGPAAESEKETKALADFIRNKLSSIKAYLTIHSYSQMMIYPYSYAYKLGENNAELNALAKATVKELASLHGTKYTYGPGATTIYPAAGGSDDWAYDQGIRYSFTFELRDTGRYGFLLPESQIRATCEETFLAIKYVASYVLEHLY
# modifications: pro-form
# notes: pro form of human pancreatic carboxypeptidase B expressed from COS cells
# Columns and labels:
# [1] = tested on: Lys66Glu BP-RNase; experiment: Enzyme kinetics of prodrug analogues with mutant Lys66Glu bovine RNase; conditions: 25° C.
# [2] = tested on: Lys66Glu BP-RNase; type: biochemical, bovine; conditions: for kcat/Km: pH 7.5
# [3] = tested on: HP-RNase; type: biochemical, human; conditions: pH 7
# [4] = tested on: Arg4Ala,Lys6Ala,Lys66Glu HP-RNase; type: biochemical, human; conditions: for kcat/Km: pH 7
# [5] = tested on: D253K mutant HCPB; experiment: Determination of Km and kcat of D253K mutant HCPB with Hipp-Asp and Hipp-Glu; type: biochemical, human; conditions: for Km / kcat / kcat/Km: pH 7.5, 37° C.
# [6] = tested on: LoVo colorectal tumour cells
# [7] = tested on: LoVo tumour; experiment: Anti-tumour activity in LoVo xenografted mice; type: in vivo, athymic nude mice; conditions: conjugate 10-100 mg/kg iv, then prodrug 100-1000 mg/kg iv or ip; vs untreated, conjugate or prodrug alone
# Method: LoVo tumour cells (10^7) are injected subcutaneously into athymic nude mice. When the tumours are 4-5 mm in diameter the conjugate is administered iv at doses between 10-100 mg/kg. Following localisation of the conjugate to the tumours and allowing a suitable time interval for residual conjugate to clear from the bloodstream and normal tissues (1-4 days) the prodrug is administered either iv or ip to the mice in dose ranging between 100-1000 mg/kg.
# [8] = target: T1, BP-RNase; experiment: Enzyme kinetics of RNase prodrug versus native bovine pancreatic RNase; type: biochemical; conditions: 37° C., pH 7.5
# [9] = tested on: C>p; experiment: RNase activity of recombinant and Lys66Glu bovine RNase on hydrolysis of C>p (and CpA); type: biochemical
# [10] = target: C > p; experiment: Kinetic characterisation of RNase enzymes with C>p as substrate at pH 7.0; type: biochemical; conditions: CpA and C>p as substrates
# Method: The kinetic characterisation was carried out using CpA and C>p as substrates (FIG. 16). The kinetic parameters Km, kcat, and kcat/Km were compared with the values obtained for commercial and recombinant bovine pancreatic RNase under the same assay conditions (see Tables).
# Kinetic parameters of the different enzymes for C > p as […]
# [11] = HCPB activity of COS cell supernatants against Hipp-Arg; type: biochemical; conditions: COS-7 supernatant (250 μl), 5 h assay
# [12] = Enzymic activity of recombinant HCPB against Hipp-Arg (spectrophotometric); type: biochemical; conditions: Tris HCl pH 7.5
# Method: Purified human CPB, produced as described in Reference Example 20, was assayed for its ability to convert hippuryl-L-arginine (Hipp-Arg) to hippuric acid using a spectrophotometric assay.
# Km and Vmax values were calculated using the ENZFITTER™ software programme (Biosoft™, Perkin Elmer). Kcat was calculated form Vmax by dividing by the enzyme concentration in the reaction mixture.
# [13] = Conversion of Hipp-Glu to hippuric acid by mutant and native human CPB (HPLC); type: biochemical; conditions: 0.5 mM Hipp-Glu, 4 μg enzyme, 5 h, 37° C., pH 7.5
# [14] = Conversion of Hipp-Arg to hippuric acid by mutant and native human CPB (HPLC); type: biochemical; conditions: 4 μg enzyme, 5 h, 37° C., pH 7.5
# [15] = Conversion of Hipp-Asp to hippuric acid by mutant and native human CPB (HPLC); type: biochemical; conditions: 0.5 mM Hipp-Asp, 4 μg enzyme, 5 h, 37° C., pH 7.5
molecule,measurement,setting,value
CCCN(CCC)c1ccc(OP(=O)(O)O[C@H]2[C@@H](O)[C@H](n3ccc(=O)[nH]c3=O)O[C@@H]2CNC(=O)CN)cc1 [Reference Example 6],kcat/Km,[1],25(6) mM^-1 s^-1
CCCN(CCC)c1ccc(OP(=O)(O)O[C@H]2[C@@H](O)[C@H](n3ccc(N)nc3=O)O[C@@H]2CNC(=O)CN)cc1 [Reference Example 7],kcat/Km,[1],109(11) mM^-1 s^-1
"Nc1ccn([C@@H]2O[C@H](CO)[C@H]3OP(=O)(O)O[C@H]32)c(=O)n1 [C > p, cytidine-2',3'-cyclic monophosphate, reference compound]",kcat/Km,[2],3.0
same,kcat/Km,[3],1.2
same,kcat/Km,[1],3.0 mM⁻¹ s⁻¹
same,kcat/Km,[4],1.2
"O=C(O)C[C@H](NC(=O)CNC(=O)c1ccccc1)C(=O)O [Hipp-Asp, hippuryl-L-aspartic acid] (HELM PEPTIDE1{[O=C(c1ccccc1)[*:2]].G.D}$$$$V2.0)",Km,[5],2.7 mM
same,kcat,[5],0.26 s⁻¹
same,kcat/Km,[5],100 M⁻¹ s⁻¹
"O=C(O)CC[C@H](NC(=O)CNC(=O)c1ccccc1)C(=O)O [Hipp-Glu, hippuryl-L-glutamic acid] (HELM PEPTIDE1{[O=C(c1ccccc1)[*:2]].G.E}$$$$V2.0)",kcat/Km compared to the Hipp-Asp substrate,[5]; Hipp-Glu vs Hipp-Asp,approximately 7 fold
same,Km,[5],5.3 mM
same,kcat,[5],3.8 s⁻¹
same,kcat/Km,[5],700 M⁻¹ s⁻¹
"NCC(=O)NC[C@H]1O[C@@H](n2ccc(=O)[nH]c2=O)[C@H](O)[C@@H]1OP(=O)(O)Oc1ccc(N(CCCl)CCCl)cc1 [Example 3, O-[(2R,3S,4R,5R)-2-(2-aminoacetamidomethyl)-5-(2,4-dioxo-1,2,3,4-tetrahydropyrimidin-1-yl)-4-hydroxy-2,3,4,5-tetrahydrofuran-3-yl]O-[4-(bis[2-chloroethyl]amino)phenyl] hydrogen phosphate]","cytotoxicity of prodrug with A5B7 F(ab')2-Arg4Ala,Lys6Ala,Lys66Glu HP-RNase conjugate",[6],comparable to that of the active drug
same,"cytotoxicity of prodrug with free Arg4Ala,Lys6Ala,Lys66Glu HP-RNase",[6],comparable to that of the active drug
same,fold less cytotoxic than the drug,[6]; human,approximately 30 fold
same,IC50,[6]; read-out: IC50 (inhibition of cell growth by 50%),~30 µM
same,tumour growth with combination of conjugate and prodrug,[7],significantly slower
same,rate of hydrolysis compared with native enzyme,[2],much faster than the native enzyme
same,kcat/Km,[2],18
same,kcat/Km,[8],370 M⁻¹ s⁻¹
same,kcat/Km,[3],0.2
same,rate of hydrolysis compared with native enzyme,[4],much faster than the native enzyme
same,kcat/Km,[4],3.6
B1,specific activity compared with the commercial enzyme,[9]; hydrolysis of CpA and C>p,equal specific activity to that of the commercial enzyme
B2,kinetic properties compared with commercial bovine enzyme,"[9]; C>p hydrolysis, pH 7.0",not significantly different to the commercial bovine enzyme
B3,kinetic properties compared with homologous bovine counterpart,[10],not significantly different
B4,hydrolysis of Hipp-Arg substrate,[11]; LIPOFECTIN-only control 1.2%,61%
same,kcat,[12],65 s⁻¹
same,"% conversion to Hippuric acid, Hipp-Glu",[13],0%
same,"% conversion to Hippuric acid, Hipp-Arg",[14],100%
same,"% conversion to Hippuric acid, Hipp-Asp",[15],0%
B5,hydrolysis of Hipp-Arg substrate after activation with trypsin,"[11]; trypsin 700 μg/ml, LIPOFECTIN-only control 30%",complete hydrolysis
